Legend:
[1] = Exploratory embryofetal development study in rats
[2] = PN002/Part I: safety and tolerability; assay type: in vivo, human
Method: All adverse events were mild or moderate in intensity. No serious adverse events were reported. […] Treatment periods were separated by a minimum 1-week washout period after administration of the 2 mg dose in Period 1 and by a minimum 2-week washout after subsequent treatment periods. Clinical safety was monitored throughout the study by adverse events, clinical laboratory tests, vital signs, ECGs, and ECG telemetry. *The study was planned to include 8 subjects. A ninth subject was randomized to replace a subject who was discontinued after Period 1 (because of a prolonged QTc interval after administration of the 2 mg dose, which was considered by the investigator to be unrelated to the study drug). […] The most frequently reported adverse events were relaxation, fuzzy head, headache, lightheadedness, dizziness, and mood alteration, all of which were transient and generally mild or moderate in severity.

[3] = Sprague-Dawley rat, oral gavage GD 6 through GD 20

CC(C)c1ccc(CC(=O)N[C@H](C)c2ccc(OCC(F)(F)F)cn2)cc1 [CX-8998]
dose at which developmental toxicity was observed [1, 3]: observed at ≥100 mg/kg/day. | dose at which maternal toxicity was excessive [1, 3]: 1000 mg/kg/day | dose at which maternal toxicity was observed [1, 3]: ≥ 30 mg/kg/day | Doses with developmental toxicity (decreased live fetal body weight) ([1]; rat, in vivo): ≥ 100 mg/kg/day | Doses with maternal toxicity ([1]; rat, in vivo): ≥ 30 mg/kg/day | At least 1 adverse event ([2]; 2 mg): 5 (71.4) n (%) | Breathing difficult ([2]; 2 mg): 0 n (%) | Dizziness ([2]; 2 mg): 0 n (%) | Dizziness upon standing ([2]; 2 mg): 0 n (%) | Dry mouth ([2]; 2 mg): 0 n (%) | Dry throat ([2]; 2 mg): 0 n (%) | Eye Disorders ([2]; 2 mg): 0 n (%) | Feeling drunk ([2]; 2 mg): 0 n (%) | Feeling hot ([2]; 2 mg): 0 n (%) | Feeling of relaxation ([2]; 2 mg): 1 (14.3) n (%) | Feeling of warmth ([2]; 2 mg): 0 n (%) | Floating feeling ([2]; 2 mg): 1 (14.3) n (%) | Fuzzy head ([2]; 2 mg): 0 n (%) | Gastrointestinal Disorders ([2]; 2 mg): 1 (14.3) n (%) | Headache ([2]; 2 mg): 2 (28.6) n (%) | Lightheadedness ([2]; 2 mg): 0 n (%) | Nasal congestion ([2]; 2 mg): 0 n (%) | Nervous System Disorders ([2]; 2 mg): 2 (28.6) n (%) | Paraesthesia of fingers ([2]; 2 mg): 0 n (%) | Respiratory, Thoracic and Mediastinal Disorders ([2]; 2 mg): 1 (14.3) n (%) | Tiredness ([2]; 2 mg): 0 n (%) | Vision blurred ([2]; 2 mg): 0 n (%) | Visual disturbance ([2]; 2 mg): 0 n (%) | At least 1 adverse event ([2]; 4 mg): 5 (83.3) n (%) | Breathing difficult ([2]; 4 mg): 0 n (%) | Dizziness ([2]; 4 mg): 0 n (%) | Dizziness upon standing ([2]; 4 mg): 0 n (%) | Dry mouth ([2]; 4 mg): 0 n (%) | Dry throat ([2]; 4 mg): 0 n (%) | Eye Disorders ([2]; 4 mg): 1 (16.7) n (%) | Feeling drunk ([2]; 4 mg): 0 n (%) | Feeling hot ([2]; 4 mg): 0 n (%) | Feeling of relaxation ([2]; 4 mg): 1 (16.7) n (%) | Feeling of warmth ([2]; 4 mg): 0 n (%) | Floating feeling ([2]; 4 mg): 1 (16.7) n (%) | Fuzzy head ([2]; 4 mg): 1 (16.7) n (%) | Headache ([2]; 4 mg): 3 (50.0) n (%) | Lightheadedness ([2]; 4 mg): 1 (16.7) n (%) | Nasal congestion ([2]; 4 mg): 1 (16.7) n (%) | Nervous System Disorders ([2]; 4 mg): 5 (83.3) n (%) | Paraesthesia of fingers ([2]; 4 mg): 0 n (%) | Respiratory, Thoracic and Mediastinal Disorders ([2]; 4 mg): 1 (16.7) n (%) | Tiredness ([2]; 4 mg): 1 (16.7) n (%) | Vision blurred ([2]; 4 mg): 1 (16.7) n (%) | Visual disturbance ([2]; 4 mg): 0 n (%) | At least 1 adverse event ([2]; 8 mg): 6 (100) n (%) | Breathing difficult ([2]; 8 mg): 1 (16.7) n (%) | Dizziness ([2]; 8 mg): 2 (33.3) n (%) | Dizziness upon standing ([2]; 8 mg): 1 (16.7) n (%) | Dry mouth ([2]; 8 mg): 4 (66.7) n (%) | Dry throat ([2]; 8 mg): 1 (16.7) n (%) | Eye Disorders ([2]; 8 mg): 2 (33.3) n (%) | Feeling drunk ([2]; 8 mg): 0 n (%) | Feeling hot ([2]; 8 mg): 2 (33.3) n (%) | Feeling of relaxation ([2]; 8 mg): 0 n (%) | Feeling of warmth ([2]; 8 mg): 0 n (%) | Floating feeling ([2]; 8 mg): 1 (16.7) n (%) | Fuzzy head ([2]; 8 mg): 2 (33.3) n (%) | Gastrointestinal Disorders ([2]; 8 mg): 4 (66.7) n (%) | Headache ([2]; 8 mg): 3 (50.0) n (%) | Lightheadedness ([2]; 8 mg): 3 (50.0) n (%) | Nasal congestion ([2]; 8 mg): 1 (16.7) n (%) | Nervous System Disorders ([2]; 8 mg): 6 (100.0) n (%) | Paraesthesia of fingers ([2]; 8 mg): 0 n (%) | Respiratory, Thoracic and Mediastinal Disorders ([2]; 8 mg): 3 (50.0) n (%) | Tiredness ([2]; 8 mg): 2 (33.3) n (%) | Vision blurred ([2]; 8 mg): 1 (16.7) n (%) | Visual disturbance ([2]; 8 mg): 1 (16.7) n (%) | At least 1 adverse event ([2]; 12 mg): 5 (83.3) n (%) | Breathing difficult ([2]; 12 mg): 0 n (%) | Dizziness ([2]; 12 mg): 0 n (%) | Dizziness upon standing ([2]; 12 mg): 0 n (%) | Dry mouth ([2]; 12 mg): 1 (16.7) n (%) | Dry throat ([2]; 12 mg): 0 n (%) | Eye Disorders ([2]; 12 mg): 1 (16.7) n (%) | Feeling drunk ([2]; 12 mg): 1 (16.7) n (%) | Feeling hot ([2]; 12 mg): 0 n (%) | Feeling of relaxation ([2]; 12 mg): 2 (33.3) n (%) | Feeling of warmth ([2]; 12 mg): 0 n (%) | Floating feeling ([2]; 12 mg): 0 n (%) | Fuzzy head ([2]; 12 mg): 0 n (%) | Headache ([2]; 12 mg): 3 (50.0) n (%) | Lightheadedness ([2]; 12 mg): 0 n (%) | Nasal congestion ([2]; 12 mg): 0 n (%) | Nervous System Disorders ([2]; 12 mg): 4 (66.7) n (%) | Paraesthesia of fingers ([2]; 12 mg): 0 n (%) | Respiratory, Thoracic and Mediastinal Disorders ([2]; 12 mg): 1 (16.7) n (%) | Tiredness ([2]; 12 mg): 0 n (%) | Vision blurred ([2]; 12 mg): 1 (16.7) n (%) | Visual disturbance ([2]; 12 mg): 0 n (%) | At least 1 adverse event ([2]; 18 mg): 6 (100.0) n (%) | Breathing difficult ([2]; 18 mg): 2 (33.3) n (%) | Dizziness ([2]; 18 mg): 2 (33.3) n (%) | Dizziness upon standing ([2]; 18 mg): 1 (16.7) n (%) | Dry mouth ([2]; 18 mg): 0 n (%) | Dry throat ([2]; 18 mg): 1 (16.7) n (%) | Eye Disorders ([2]; 18 mg): 2 (33.3) n (%) | Feeling drunk ([2]; 18 mg): 1 (16.7) n (%) | Feeling hot ([2]; 18 mg): 2 (33.3) n (%) | Feeling of relaxation ([2]; 18 mg): 2 (33.3) n (%) | Feeling of warmth ([2]; 18 mg): 2 (33.3) n (%) | Floating feeling ([2]; 18 mg): 2 (33.3) n (%) | Fuzzy head ([2]; 18 mg): 2 (33.3) n (%) | Gastrointestinal Disorders ([2]; 18 mg): 3 (50.0) n (%) | Headache ([2]; 18 mg): 2 (33.3) n (%) | Lightheadedness ([2]; 18 mg): 1 (16.7) n (%) | Nasal congestion ([2]; 18 mg): 0 n (%) | Nervous System Disorders ([2]; 18 mg): 6 (100.0) n (%) | Paraesthesia of fingers ([2]; 18 mg): 2 (33.3) n (%) | Respiratory, Thoracic and Mediastinal Disorders ([2]; 18 mg): 2 (33.3) n (%) | Tiredness ([2]; 18 mg): 1 (16.7) n (%) | Vision blurred ([2]; 18 mg): 0 n (%) | Visual disturbance ([2]; 18 mg): 2 (33.3) n (%) | At least 1 adverse event ([2]; any dose): 9 (100.0) n (%) | Breathing difficult ([2]; any dose): 2 (22.2) n (%) | Dizziness ([2]; any dose): 3 (33.3) n (%) | Dizziness upon standing ([2]; any dose): 2 (22.2) n (%) | Dry mouth ([2]; any dose): 4 (44.4) n (%) | Dry throat ([2]; any dose): 2 (22.2) n (%) | Eye Disorders ([2]; any dose): 4 (44.4) n (%) | Feeling drunk ([2]; any dose): 2 (22.2) n (%) | Feeling hot ([2]; any dose): 2 (22.2) n (%) | Feeling of relaxation ([2]; any dose): 5 (55.6) n (%) | Feeling of warmth ([2]; any dose): 2 (22.2) n (%) | Floating feeling ([2]; any dose): 2 (22.2) n (%) | Fuzzy head ([2]; any dose): 3 (33.3) n (%) | Gastrointestinal Disorders ([2]; any dose): 6 (66.7) n (%) | Headache ([2]; any dose): 7 (77.8) n (%) | Lightheadedness ([2]; any dose): 4 (44.4) n (%) | Nasal congestion ([2]; any dose): 2 (22.2) n (%) | Nervous System Disorders ([2]; any dose): 8 (88.8) n (%) | Paraesthesia of fingers ([2]; any dose): 2 (22.2) n (%) | Respiratory, Thoracic and Mediastinal Disorders ([2]; any dose): 4 (44.4) n (%) | Tiredness ([2]; any dose): 3 (33.3) n (%) | Vision blurred ([2]; any dose): 3 (33.3) n (%) | Visual disturbance ([2]; any dose): 3 (33.3) n (%) | Tolerability ([2]; single doses up to 18 mg): generally well tolerated

Reference: patent US11311522B1 (Cavion, Inc., priority 2018, dated 2022)
